Laboratory results: patent US20030232754A1, “Use of GLP-1 peptides” (priority 1996, published 2003)
Where two headings read alike, the source gives them in different places. No end group written: not given here.

Legend:
rats = conditions: cited from earlier work
Healthy human volunteers = test: Effect of iv infusion on satiety, hunger, fullness, appetite (visual analogue scale) and ad libitum energy intake in a double-blind crossover trial; assay type: in vivo
Text: Healthy human volunteers (20 subjects) were in a double-blind crossover trial given an iv infusion of 50 pmol/(kg·h) of GLP-1(7-36)amide or saline on separate, but otherwise identical experimental days. The infusion was started at 9.00 and lasted until 15.00. At 9.45 the subjects received a fixed amount of breakfast and at 14.15 they had lunch of an identical composition but ad libitum. The subjects rated their feeling of satiety, hunger, fullness and appetite on a visual analogue scale every half hour. The results are given below:
The energy intake of each subjects was measured. The intakes were 3.9 MJ with GLP-1 and 4.3 MJ with Saline resulting in a p-value of 0.009.

Mice [1] = test: Appetite suppression in mice: sucrose consumption immediately after ip injection (Example 2); assay type: in vivo; conditions: mice fasted two days, ip 85 micrograms (3.4 mg/kg) in saline, tested immediately after injection, 10 minute period; p-value 0.002
Experimental: Mice were deprived of their normal food for two days and given free access to a 20% sucrose solution on the first day of food deprivation. After the two day food deprivation period, the mice were injected intraperitoneally with 0.5 ml of a solution containing the test substance. Immediately after injection, individual mice were placed in one of eight 15 cm square test boxes with a stainless steel grid floor and a glass drinking tube which projected into the box. […] Consumption of the sucrose solution was measured over a 10 minute period by electronically recording the total amount of contact with the sucrose solution during the test session. The degree of appetite suppression produced by a given test substance was determined by statistical comparison of the mean duration of sucrose consumption by control (vehicle treated) mice with that of mice treated with a test substance. The degree of appetite suppression in a treated group of mice was expressed as percent difference between the test and control group's response duration means. […]

Mice [2] = test: Appetite suppression in mice: Complan consumption after subcutaneous injection (Example 4); assay type: in vivo; conditions: p<0.001
Experimental: The test method was as described in Example 3 except that the mice were pre-exposed to formula milk (Complan®—a nutritionally complete infant milk substitute) for one day, then fasted one day. On the test day, consumption of Complan® was measured for each mouse during a 10 min period.
Mice were tested for appetite suppression by subcutaneous injection of GLP-1(7-36)amide dissolved in phosphate buffered saline.

[3] = iv infusion 50 pmol/(kg·h), 9.00 to 15.00, 20 healthy subjects, rated every half hour, p = 0.007

GLP-1(1-36)amide (HDEFERHAEGTFTSDVSSYLEGQAAKEFIAWLVKGR-NH2; UniProt P01275 92-127, looked up, fragment) [fragment 1-36 of GLP-1 as C-terminal amide]
Effect on food intake (rats; route not stated, Tang-Christensen et al. 1996): no effect

GLP-1(1-37)
Effect on food intake (rats; intracerebroventricular administration, Tang-Christensen et al. 1996): profound effect
Effect on food intake (rats; intracerebroventricular administration, Turton et al. 1996): profound effect
Effect on food intake (rats; peripheral administration, Tang-Christensen et al. 1996): no significant effect
Energy intake (Healthy human volunteers; ad libitum lunch during iv infusion 50 pmol/(kg·h), saline 4.3 MJ, p-value 0.009): 3.9 mJ
Satiety (visual analogue scale rating) versus saline (Healthy human volunteers; iv infusion 50 pmol/(kg·h), 9.00 to 15.00, 20 healthy subjects, rated every half hour, p = 0.006): GLP-1 > Saline, p = 0.006
Appetite (visual analogue scale rating) versus saline (Healthy human volunteers; [3]): GLP-1 < Saline, p = 0.007
Hunger (visual analogue scale rating) versus saline (Healthy human volunteers; [3]): GLP-1 < Saline, p = 0.007
Fullness (visual analogue scale rating) versus saline (Healthy human volunteers; iv infusion 50 pmol/(kg·h), 9.00 to 15.00, 20 healthy subjects, rated every half hour, p = 0.010): GLP-1 > Saline, p = 0.010

GLP-1(7-36)amide
Suppression of sucrose consumption (Mice [1]): 60%
Suppression of feeding (Complan consumption) (Mice [2]; 1 mg/kg, 30 min after injection): 45%
Maximum effect, suppression of feeding (Complan consumption) (Mice [2]; highest dose tested 20 mg/kg): 60%
